Measured values from US12162888B2, “Carboxamides as ubiquitin-specific protease inhibitors” (Valo Early Discovery, Inc., priority 2018, dated 2024).

What follows are compounds tested against T1, USP28 (His-tagged USP28-FL-mammalian) (Homo sapiens, UniProt Q96RU2) (assay: Ubiquitin-Rhodamine 110 Assay for USP28 Activity, Example A-1(a)). Conditions: Ubiquitin-Rhodamine 110 assay, read-out: USP28 A-1(a) IC50 range.
T1 construct: Expression of USP28 (1-1077)-TEV-6*His (pTT5 vector) was carried out in Expi293f cells; made in house; host or cells: Expi293F cells (pTT5 vector)
T1 sequence (Q96RU2 1-1077): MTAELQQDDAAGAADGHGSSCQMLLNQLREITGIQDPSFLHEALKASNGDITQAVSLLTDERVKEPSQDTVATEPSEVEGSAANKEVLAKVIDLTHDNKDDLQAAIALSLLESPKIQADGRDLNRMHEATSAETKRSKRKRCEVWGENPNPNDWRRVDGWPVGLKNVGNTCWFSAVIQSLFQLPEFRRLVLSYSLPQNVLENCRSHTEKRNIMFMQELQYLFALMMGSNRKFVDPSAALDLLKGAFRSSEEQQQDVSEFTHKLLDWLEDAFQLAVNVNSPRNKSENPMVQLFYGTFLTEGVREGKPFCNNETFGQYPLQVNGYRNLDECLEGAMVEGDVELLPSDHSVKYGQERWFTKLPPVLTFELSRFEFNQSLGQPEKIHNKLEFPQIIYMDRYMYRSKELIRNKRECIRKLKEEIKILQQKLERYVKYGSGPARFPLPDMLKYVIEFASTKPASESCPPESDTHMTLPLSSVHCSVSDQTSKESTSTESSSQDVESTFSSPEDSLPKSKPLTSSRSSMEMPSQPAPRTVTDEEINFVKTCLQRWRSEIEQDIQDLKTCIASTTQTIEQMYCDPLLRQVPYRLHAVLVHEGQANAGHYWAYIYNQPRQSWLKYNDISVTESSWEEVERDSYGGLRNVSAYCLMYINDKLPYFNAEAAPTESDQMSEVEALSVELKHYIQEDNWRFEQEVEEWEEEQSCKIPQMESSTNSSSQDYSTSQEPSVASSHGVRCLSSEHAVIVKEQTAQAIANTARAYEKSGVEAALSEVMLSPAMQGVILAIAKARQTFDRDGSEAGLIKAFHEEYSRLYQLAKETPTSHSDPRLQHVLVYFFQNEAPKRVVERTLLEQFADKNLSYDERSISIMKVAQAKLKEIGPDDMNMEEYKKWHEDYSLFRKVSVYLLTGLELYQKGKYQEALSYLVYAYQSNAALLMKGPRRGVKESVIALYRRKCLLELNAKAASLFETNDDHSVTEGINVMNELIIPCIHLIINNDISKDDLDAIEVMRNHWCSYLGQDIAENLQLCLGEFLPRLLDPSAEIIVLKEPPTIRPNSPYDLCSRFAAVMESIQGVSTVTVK
Format: biochemical
Procedure, shortened: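 IC50s were fitted with a 4-parameter logistic to percent inhibition relative to no-enzyme and DMSO controls, using Rhodamine 110 fluorescence (485/535 nm) released from 25 nM Ub-Rh110. The enzyme was Expi293F-expressed USP28-FL-His at […], preincubated 30 min with compound (10-point, 25 μM top) in Tris pH 8.0 buffer containing BGG and Triton X-100. Substrate turnover ran 45 min at room temperature and was stopped with 10 mM citric acid.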
For CN[C@H]1CCN(c2ccc3c(c2)CC[C@@H](NC(=O)c2sc4nc(C)cnc4c2N)C3)C1 (single isomer, unassigned) [Example 11-26], the IC50 was greater than 2 µM.
Work on CN[C@@H]1CN(c2ccc3c(n2)CC[C@H](NC(=O)c2sc4nc(C)ccc4c2N)C3)C[C@@H]1CF [Example 442, 3-amino-N-[(6S)-2-[(3S,4S)-3-(fluoromethyl)-4-(methylamino)pyrrolidin-1-yl]-5,6,7,8-tetrahydroquinolin-6-yl]-6-methylthieno[2,3-b]pyridine-2-carboxamide] yielded an IC50 of 0.05 to 0.2 µM.
With Cc1ccc2c(N)c(C(=O)N[C@H]3COc4cc(N5CCNCC5)ccc4[C@H]3C)sc2n1 (single isomer, unassigned) [Example 11-15] the IC50 was greater than 2 µM.
For Cc1ccc2c(N)c(C(=O)N[C@H]3COc4cc(N5C[C@H](N)[C@@]6(CCOC6)C5)ccc4C3)sc2n1 (single isomer, unassigned) [Example 439], the IC50 was 0.001 to 0.05 µM.
With CCn1ccc2cc(C(=O)N[C@H]3CCc4nc(N5C[C@@H](COC)[C@@H](N)C5)ccc4C3)cnc21 (single isomer, unassigned) [Example 400] the IC50 was 0.2 to 2 µM.
Cc1ccc2c(N)c(C(=O)N[C@H]3CCc4nc(N5C[C@@H](N)[C@]6(CCOC6)C5)ccc4C3)sc2n1 [Example 438, 3-amino-N-[(6S)-2-[(5S, 9S)-9-amino-2-oxa-7-azaspiro[4.4]nonan-7-yl]-5,6,7,8-tetrahydroquinolin-6-yl]-6-methylthieno[2,3-b]pyridine-2-carboxamide] showed an IC50 of 0.05 to 0.2 µM.
Work on [2H]C1([2H])c2c(F)cc(N3CCNCC3)cc2OC[C@@H]1NC(=O)c1sc2nc(C)ccc2c1N (single isomer, unassigned) [Example 33-1] yielded an IC50 of 0.001 to 0.05 µM.
With Cc1nc2sc(C(=O)N[C@H]3CCc4c(C#N)c(N5CC6CCC(C5)N6)cc(F)c4C3)c(N)c2s1 (single isomer, unassigned) [Example 14-21] the IC50 was 0.001 to 0.05 µM.
Compound CO[C@H]1CN(c2ccc3c(c2)OC[C@H](NC(=O)c2sc4nc(C)cnc4c2N)C3)C[C@@H]1N [Example 117] has an IC50 of 0.001 to 0.05 µM.
CN[C@H]1CN(c2ccc3c(n2)CC[C@H](NC(=O)c2sc4nc(C)ccc4c2N)C3)C[C@H]1CF [Example 441, 3-amino-N-[(6S)-2-[(3R,4R)-3-(fluoromethyl)-4-(methylamino)pyrrolidin-1-yl]-5,6,7,8-tetrahydroquinolin-6-yl]-6-methylthieno[2,3-b]pyridine-2-carboxamide] gave an IC50 of 0.05 to 0.2 µM.
For Cc1ccc2c(N)c(C(=O)N[C@@H]3COc4cc(N5CCNCC5)ccc4[C@@H]3C)sc2n1 (single isomer, unassigned) [Example 11-18], the IC50 was 0.2 to 2 µM.
For Cc1ccc2c(N)c(C(=O)N[C@H]3CCc4cc(N5CC6CNCC(C5)O6)cc(F)c4C3)sc2n1 (single isomer, unassigned) [Example 11-39], the IC50 was 0.2 to 2 µM.
Cc1cnc2c(N)c(C(=O)N[C@@H]3CCc4c(C#N)c(N5CC6CCC(C5)N6)cc(F)c4C3)sc2n1 (single isomer, unassigned) [Example 14-20] gave an IC50 of 0.2 to 2 µM.
Cc1ccc2c(N)c(C(=O)N[C@H]3CCc4nc(N5C[C@H](N)[C@@]6(CCOC6)C5)ccc4C3)sc2n1 [Example 437, 3-amino-N-[(6S)-2-[(5R,9R)-9-amino-2-oxa-7-azaspiro[4.4]nonan-7-yl]-5,6,7,8-tetrahydroquinolin-6-yl]-6-methylthieno[2,3-b]pyridine-2-carboxamide] was tested, and the IC50 was 0.05 to 0.2 µM.
For Cc1cnc2c(N)c(C(=O)N[C@H]3CCc4c(C#N)c(N5CCNCC5)cc(F)c4C3)sc2n1 (single isomer, unassigned) [Example 14-12], the IC50 was 0.2 to 2 µM.
CCn1ccc2cc(C(=O)N[C@H]3CCc4nc(N5C[C@H](COC)[C@H](N)C5)ccc4C3)cnc21 (single isomer, unassigned) [Example 401] gave an IC50 of 0.2 to 2 µM.
With Cc1cnc2c(N)c(C(=O)N[C@H]3CCc4c(ccc(N5CCNCC5)c4F)C3)sc2n1 (single isomer, unassigned) [Example 21-10] the IC50 was greater than 2 µM.
For Cc1cnc2c(N)c(C(=O)N[C@@H]3CCc4c(ccc(N5CCNCC5)c4F)C3)sc2n1 (single isomer, unassigned) [Example 21-9], the IC50 was 0.05 to 0.2 µM.

Same assay, conditions: biochemical IC50 range, Ubiquitin-Rhodamine 110 assay, read-out: USP28 A-1(a)
Cc1ccc2c(N)c(C(=O)N[C@H]3COc4cc(N5C[C@H](N)[C@]6(CCOC6)C5)ccc4C3)sc2n1 [Example 656, 3-amino-N-[(3R)-7-[(5S,9R)-9-amino-2-oxa-7-azaspiro[4.4]nonan-7-yl]-3,4-dihydro-2H-1-benzopyran-3-yl]-6-methylthieno[2,3-b]pyridine-2-carboxamide] gave an IC50 of 0.001 to 0.05 µM.
In the case of CN[C@@H]1CN(c2ccc3c(c2)OC[C@H](NC(=O)c2sc4nc(C)ccc4c2N)C3)C[C@H]1CF [Example 663, 3-amino-N-[(3R)-7-[(3R,4S)-3-(fluoromethyl)-4-(methylamino)pyrrolidin-1-yl]-3,4-dihydro-2H-1-benzopyran-3-yl]-6-methylthieno[2,3-b]pyridine-2-carboxamide], the IC50 is reported as 0.001 to 0.05 µM.
O=C(N[C@H]1COc2cc(N3CCNCC3)ccc2C1)c1ccc(NCc2cccc(Cl)c2Cl)nc1 [Example 699, 6-{[(2,3-dichlorophenyl)methyl]amino}-N-[(3R)-7-(piperazin-1-yl)-3,4-dihydro-2H-1-benzopyran-3-yl]pyridine-3-carboxamide] gave an IC50 of 0.001 to 0.05 µM.
With COC1CN(c2ccc3c(c2)CC[C@H](NC(=O)c2sc4nc(C)cnc4c2N)C3)CC1N (stereo in doubt) [Example 130, 7-amino-N-[(2S)-6-[(3S,4S)-3-amino-4-methoxypyrrolidin-1-yl]-1,2,3,4-tetrahydronaphthalen-2-yl]-3-methylthieno[2,3-b]pyrazine-6-carboxamide] the IC50 was 0.05 to 0.2 µM.
CO[C@H]1CN(c2ccc3c(c2)CC[C@H](NC(=O)c2sc4nc(C)ccc4c2N)C3)C[C@H]1N [Example 144, 3-amino-N-[(2S)-6-[(3R,4S)-3-amino-4-methoxypyrrolidin-1-yl]-1,2,3,4-tetrahydronaphthalen-2-yl]-6-methylthieno[2,3-b]pyridine-2-carboxamide] gave an IC50 of 0.05 to 0.2 µM.
O=C(N[C@H]1COc2cc(N3CCNCC3)ccc2C1)c1ccc(NCc2cccc3cn[nH]c23)nc1 [Example 698, 6-{[(1H-indazol-7-yl)methyl]amino}-N-[(3R)-7-(piperazin-1-yl)-3,4-dihydro-2H-1-benzopyran-3-yl]pyridine-3-carboxamide] gave an IC50 of 0.2 to 2 µM.
In the case of Cc1ccc2c(N)c(C(=O)N[C@H]3COc4cc(N5C[C@H](N)[C@](C)(CF)C5)ccc4C3)sc2n1 [Example 658, 3-amino-N-[(3R)-7-[(3R,4R)-4-amino-3-(fluoromethyl)-3-methylpyrrolidin-1-yl]-3,4-dihydro-2H-1-benzopyran-3-yl]-6-methylthieno[2,3-b]pyridine-2-carboxamide], the IC50 is reported as 0.001 to 0.05 µM.
Cc1ccc2c(N)c(C(=O)N[C@H]3COc4cc(N5C[C@@H]6CCNC[C@@H]65)cc(F)c4C3)sc2n1 [Example 665, 3-amino-N-[(3R)-7-[(1R,6S)-3,8-diazabicyclo[4.2.0]octan-8-yl]-5-fluoro-3,4-dihydro-2H-1-benzopyran-3-yl]-6-methylthieno[2,3-b]pyridine-2-carboxamide] gave an IC50 of 0.001 to 0.05 µM.
